The record followed here is US20060094691A1, “Inclusion complexes of rosiglitazone” (priority 2002, published 2006).

The structures appear in SMILES notation.

A short description of the data set: Intrinsic Dissolution Rate (IDR) at pH 6.8 of the cyclodextrin complexes (Sotax intrinsic dissolution assembly, USP<1087>). The class given is physicochemical. The following applies: 100 rpm. As for the experimental part:
Data: Intrinsic Dissolution Rate (IDR) at pH 6.8 of the Cyclodextrin Complexes
The intrinsic dissolution rate was measured with a Sotax intrinsic dissolution assembly according to the procedure described in USP<1087>. The 8 mm diameter disc was formed from approximately 150 mg of cyclodextrin complex and compressed at a force of 5 tons for 30 seconds using a benchtop hydraulic press. The dissolution media was 1000 mL of water containing 31.6 mL of 1 M hydrochloric acid solution and 2.0 g of sodium chloride, which was adjusted to pH 6.8 with Tris/Acetate buffer, the dissolution volume was 900 mL at 37° C. and the rotating speed was 100 rpm. Detection was performed by flow through UV sampling every 2 minutes for 1 hour at 245 nm with a 1 cm path length.

For `CN(CCOc1ccc(CC2SC(=O)NC2=O)cc1)c1ccccn1.O=C(O)/C=C\C(=O)O` (centres unmarked) [Maleate salt of Compound 1, 5-[4-[2-(N-methyl-N-(2-pyridyl)amino)ethoxy]benzyl]thiazolidine-2,4-dione, maleate salt], under “pH 6.8, 37° C., ratio to the maleate salt”, the “IDR relative to the Maleate salt of Compound 1” value turned out to be 1. Further, where the note is “pH 6.8 dissolution media, 900 mL, 37° C., 8 mm disc, UV 245 nm”, the IDR is 0.057 mg/min/cm^2.
